Laboratory results from a melting point compilation (Tetko et al.).

O=C1OC(c2cc(Br)c(O)c(Br)c2)(c2cc(Br)c(O)c(Br)c2)c2ccccc21 gave a melting point of 296 °C. Work on CC(=O)Nc1ccc2c(c1)CCC2=O yielded a melting point of 172 °C. Cc1cccc(-n2cc[nH]c2=S)c1 gave a melting point of 153 to 154 °C. Work on COC(=O)C=Cc1ccc(Cl)cc1 yielded a melting point of 76 °C. With O=C(N=c1sc(C(=O)c2cccs2)nn1-c1ccccc1[N+](=O)[O-])c1ccccc1 the melting point was 239 °C. c1cc2c3c(cccc3c1)CNC2 gave a melting point of 99 °C. Nc1ccccc1N1CCNCC1 showed a melting point of 115 °C. Molecule O=C(Cl)c1csc(-c2ccc3c(c2)CCO3)n1 has a melting point of 133 to 135 °C. Cc1c(C)c(C)c(C#N)c(C)c1C gave a melting point of 159 °C. Molecule CCOC(=O)C1C(c2ccccc2O)C(C(=O)OCC)C(O)(C(F)(F)F)NC1(O)C(F)(F)F (configuration not stated) has a melting point of 91 °C. CCOC(=O)c1c(SC)nn(C(=O)c2cccc([N+](=O)[O-])c2)c1N showed a melting point of 153 °C. Work on N#C/C(=C/c1cccs1)c1nc(-c2ccc(Cl)cc2)cs1 yielded a melting point of 170 °C. CC(=O)NC1C(Oc2c[nH]c3ccc(Br)c(Cl)c23)OC(CO)C(O)C1O (configuration not stated) showed a melting point of 246 to 248 °C. Work on Cc1ccc(C)c(C=Cc2ccc(-c3ccc(C=Cc4cc(C)ccc4C)cc3)cc2)c1 yielded a melting point of 198 °C. Work on NC(=S)Nc1ccccn1 yielded a melting point of 148 to 150 °C. In the case of CCCCC(CC)CC, the melting point is reported as -115 °C. For Cc1ccc(-c2csc(/C(C#N)=N\Nc3ccc(O)cc3)n2)cc1, the melting point was 252 °C. CCOC(N)=S showed a melting point of 41 °C. Work on O=C(Cl)c1ccc2snnc2c1 yielded a melting point of 93 to 96 °C. With Cc1ccc2c(CCl)c(C)ccc2c1CCl the melting point was 228 °C. Molecule O=C(CBr)c1ccc(Cl)c(Cl)c1 has a melting point of 57 °C. COC(=O)c1ccc(C)c([N+](=O)[O-])c1 gave a melting point of 51 °C. Work on Cc1ccc(F)cc1 yielded a melting point of -56 °C. In the case of CC(C)(C)OC(=O)N[C@@H](CCC(=O)OCc1ccccc1)C(=O)O, the melting point is reported as 65 to 68 °C. Work on O=C(Nc1nnc(-c2ccc(Cl)cc2)o1)c1ccc(Cl)cc1 yielded a melting point of 278 to 279 °C. Work on CN1N=C(C(F)(F)F)CC1=O yielded a melting point of 179 °C. In the case of CCN(CC)CCCN(c1ccccc1)C1Cc2ccccc2C1, the melting point is reported as 120 °C. For O=C(O)c1cnon1, the melting point was 102 to 104 °C. Work on COc1cccc(-c2cccc(OC)c2)c1 yielded a melting point of 36 °C. With CCCOc1ccc(O)cc1 the melting point was 56.5 °C. OC(CNc1ccccn1)c1ccccc1 (configuration not stated) gave a melting point of 83.5 °C. With CCc1ccccc1NCN1C(=O)c2ccccc2C1=O the melting point was 104 °C. For N#CC(=CN1CCOCC1)C(N)=O, the melting point was 173 to 177 °C. For CCOC(=O)CCCCCCCCCCCCC(=O)OCC, the melting point was 28 to 31 °C. Work on CC(C)c1ccc(Br)cc1 yielded a melting point of -12 °C. In the case of Fc1cnc(Cl)nc1Cl, the melting point is reported as 38 °C. For Cc1ccc(S(=O)(=O)OC2CCC3(C)C(CCC4C5CC(=O)CC5(C)CCC43)C2)cc1 (configuration not stated), the melting point was 165 to 166 °C. Molecule C/C=C/C(=O)OC has a melting point of -42 °C. For COC1(C=O)C=CC2=C(C1)OCO2 (configuration not stated), the melting point was 129 °C. C=C1C(=O)C23C(OC)CC4C5(C)CCCC4(COC5OC(C)=O)C2C(OC(C)=O)CC1C3OC(C)=O (configuration not stated) showed a melting point of 214 °C. NC(=O)c1cncc(Br)c1 gave a melting point of 226 °C. Fc1cc2c(cc1F)Oc1cc(Cl)c(Cl)cc1O2 gave a melting point of 223 °C. Work on FC(=C(F)C(F)(F)F)C(F)(F)F yielded a melting point of -129 °C. In the case of Fc1c(F)c(Cl)c(F)c(F)c1S, the melting point is reported as 47 to 52 °C. In the case of CCOC(=O)NC1C2CCC(C)(C1O)C2(C)C (configuration not stated), the melting point is reported as 76 °C. Work on Cc1cccc2[nH]ccc12 yielded a melting point of 5 °C. In the case of CC(C)[C@@H](C)CC[C@@H](C)[C@H]1CC[C@H]2C3=CC[C@H]4C[C@@H](O)CC[C@]4(C)[C@H]3CC[C@]12C, the melting point is reported as 146 °C. Molecule CCC#CCC has a melting point of -103 °C. Molecule Nc1ncccc1O has a melting point of 170 to 176 °C. In the case of CC(C)(c1cc(Br)c(O)c(Br)c1)c1cc(Br)c(O)c(Br)c1, the melting point is reported as 181 °C. With CCCCCCCCCCCCCCCCCC(=O)OCCOC(=O)CCCCCCCCCCCCCCCCC the melting point was 79 °C. For CCC(C)c1ccccc1O (configuration not stated), the melting point was 16 °C. For Cn1cnc2ncnc-2c1N, the melting point was 300 °C. In the case of O=C(c1c[nH]c2ccccc12)C(F)(F)F, the melting point is reported as 211 to 214 °C. Work on CCCCCCCCCCCCCCCCCCCl yielded a melting point of 28.6 °C. For CN1CCN(Cc2ccc(I)cc2)CC1, the melting point was 105 to 106 °C. With Cc1ccc(-c2ccc(C=C3C(=O)NC(=O)NC3=O)o2)cc1 the melting point was 265 °C. For C=C(C)n1c(=O)[nH]c2ccccc21, the melting point was 120 to 124 °C. For CCOc1cc2c(cc1OC)CCNC2CC(C)C (configuration not stated), the melting point was 151 °C. With CC(=O)OC1CC[C@@]2(C)C(=CC[C@@H]3[C@@H]2CC[C@@]2(C)[C@H]3CC[C@]2(O)C#Cc2ccccc2)C1 (some centres not stated) the melting point was 147 to 148 °C. O=C1c2ccccc2C(=O)C2CC3=C(CC=CC3)CC12 (configuration not stated) gave a melting point of 155 °C. With Cc1ccc(C(=O)NC(=Cc2ccccc2)C(=O)O)cc1 the melting point was 229 to 230 °C. In the case of CC1CCCCC1O (configuration not stated), the melting point is reported as 7 °C. Cc1ccc(C)c2c1COC2=O gave a melting point of 88 °C. Molecule COC(=O)C1=C(C(=O)OC)Cc2cc3c(cc2C1)CC3 has a melting point of 133 °C. For Cc1nn(Cc2ccccc2)c(N)c1C#N, the melting point was 78 °C. Molecule O=C(c1ccccc1)c1cccc2ccccc12 has a melting point of 76 °C. For COC(=O)c1sccc1OC, the melting point was 62 °C. Molecule CN1CCc2cc3c(cc2C(=O)Cc2ccc4c(c2C1)OCO4)OCO3 has a melting point of 208 °C. CC(Br)C(Br)c1nc(O)n(-c2ccccc2)n1 (configuration not stated) gave a melting point of 128 °C. In the case of Cc1nc(-c2ccc(C(=O)O)s2)cs1, the melting point is reported as 200 °C. Nc1nc(O)cc(Cl)n1 showed a melting point of 262 °C. Work on ClC1=C(Cl)C(Cl)(Cl)C(Cl)=C1Cl yielded a melting point of -9 °C. With NC(=S)Nc1ccc(F)cc1 the melting point was 162 to 167 °C. In the case of C=C1C(=O)C23C(OC)CC4C5(C)CCCC4(COC5=O)C2C(OC(C)=O)CC1C3O (configuration not stated), the melting point is reported as 126 to 127 °C. For COC(=O)C(C)Oc1ccc(Oc2ccc(Cl)cc2Cl)cc1 (configuration not stated), the melting point was 44 °C. For CCCCOC(=O)C(=O)OCCCC, the melting point was -29 °C. For O=C1NC(=O)[C@@H]2CC=CC[C@H]12, the melting point was 131 to 138 °C. Molecule Oc1ccccc1CCc1ccccc1 has a melting point of 85 °C. N#CC1(c2c(F)cccc2Cl)CCCCC1 gave a melting point of 76 to 81 °C. In the case of CCN1CCN(C(=O)N[C@@H](C(=O)O)c2ccc(O)cc2)C(=O)C1=O, the melting point is reported as 205 °C. CCCCCCCCCCCCOC(=O)c1ccccc1C(=O)OCCCCCCCCCCCC gave a melting point of 21 to 23 °C. Work on O=[N+]([O-])c1ccc(Cl)cc1CO yielded a melting point of 77 to 82 °C. NCCCOCCCN showed a melting point of 151 °C. OCCN1CCN(CCCN2c3ccccc3C=Cc3ccccc32)CC1 showed a melting point of 100 °C. In the case of Oc1cncc(F)c1, the melting point is reported as 163 °C. With COc1ccc(Nc2[nH]c(=S)nnc2-c2ccccc2)cc1 the melting point was 233 °C. Work on ICCc1ccc(CCI)cc1 yielded a melting point of 111 °C. CCCSCC showed a melting point of -117 °C. N#CC1(C(=O)c2ccccc2)C(c2ccc(F)cc2)NC(=O)NC1c1ccc(F)cc1 (configuration not stated) showed a melting point of 226 to 227 °C. For Cc1nc(O)ccc1[N+](=O)[O-], the melting point was 235 °C. For CCN(CC)CC(=O)OCC(=O)C1(O)CCC2C3CCC4=CC(=O)C=CC4(C)C3C(O)CC21C (configuration not stated), the melting point was 176 °C. In the case of C=CCn1c(SC)nc2nc(SC)n(C)c2c1=O, the melting point is reported as 111 to 113 °C. Work on COc1ccc(C=CC(=O)c2cccc(C(=O)C=Cc3ccc(OC)cc3)c2)cc1 yielded a melting point of 135 °C. Molecule CCc1cccc(C)c1N has a melting point of -25 °C. For CN(C)CCOc1ccccc1N, the melting point was 37 to 40 °C. With C(=Cc1ccccc1)CN1CCNCC1 the melting point was 39 to 44 °C. With N#Cc1cccc(N2CCCCC2)c1 the melting point was 133 to 136 °C. In the case of Cc1cc(C)n(N=Cc2ccccc2Cl)c(=O)c1C#N, the melting point is reported as 233 to 235 °C. For Cc1c(O)cc2c(c1C)OC(C)(CCCC(C)CCCC(C)CCCC(C)C)CC2 (configuration not stated), the melting point was -3 °C. In the case of O=C(O)Cn1c(CN2CCOCC2)nc2ccccc21, the melting point is reported as 214 to 218 °C. In the case of Cc1ccc(Br)cc1O, the melting point is reported as 79 °C. For Clc1ccc(Cl)c(CBr)c1, the melting point was 41 °C. Work on Cc1sc2ncnc(Cl)c2c1C yielded a melting point of 112 to 113 °C. CCCCCCCCCCCCCc1ccccc1 showed a melting point of 10 °C. Nc1cccc(S(=O)(=O)N2CCCCC2)c1 gave a melting point of 117 to 118 °C. NC(CO)C(=O)O (racemic) gave a melting point of 240 °C. CC1C2Cc3ccc(O)cc3C1(C)CCN2CCc1ccccc1 (configuration not stated) gave a melting point of 181 °C. Cc1ccccc1Oc1ccccc1 showed a melting point of 21.7 °C. Work on CNC(=S)N(C)C yielded a melting point of 126 to 127 °C. With CN(C)c1ccc(N=C=S)cc1 the melting point was 69 to 71 °C. For CNC(=O)C(F)(F)F, the melting point was 51 °C. Molecule CCOC(=O)C=CC(=O)O has a melting point of 70 °C. Work on NC(=O)c1cnccn1 yielded a melting point of 189 °C. With OCCSCCSCCO the melting point was 64 to 68 °C. Molecule O=Cc1cccc(Oc2ccccn2)c1 has a melting point of 115 to 116 °C. With NS(=O)(=O)c1cccc(Cl)c1Cl the melting point was 220 °C. Molecule Brc1cc(Br)c(Oc2cc(Br)c(Br)cc2Br)c(Br)c1 has a melting point of 131 to 132 °C. For CN(C)P(=O)(OP(=O)(N(C)C)N(C)C)N(C)C, the melting point was 17 °C. For O=Cc1ccc(-c2ccc(OC(F)(F)F)cc2)o1, the melting point was 87 to 88 °C. C[Si](C)(C)OC1(C#Cc2ccccc2)Cc2ccccc21 (configuration not stated) gave a melting point of 64 °C. CCOC(=O)COc1ccc2c(=O)cc(-c3ccccc3)oc2c1 gave a melting point of 124 °C. CC1=NNC(=O)C1=Cc1c(O)c2cccc(C)c2[nH]c1=O gave a melting point of 242 °C. For CCCCCN=C(N)NNC=C1C=Nc2ccc(CO)cc21, the melting point was 155 °C. With C=C=N the melting point was -78 °C. In the case of OCC(F)(F)C(F)(F)C(F)(F)C(F)(F)CO, the melting point is reported as 69 °C. With O=C1c2ccccc2C(=O)C1c1cc(Cl)c([N+](=O)[O-])cc1[N+](=O)[O-] the melting point was 185 °C. N#CC(=Cc1ccccc1)C(N)=O gave a melting point of 155 °C. For N#Cc1ccc(Cn2cncn2)cc1, the melting point was 69 to 72 °C. O=C(O)C=CC(=O)Nc1cccc(C(F)(F)F)c1 gave a melting point of 161 to 164 °C. Work on c1ccc(CCc2ccccn2)cc1 yielded a melting point of -3 °C. Molecule Clc1ccc2c(N3CCNCC3)ccnc2c1 has a melting point of 113 to 116 °C.
